What was measured:
[1] = test system: keratinocyte-melanocyte co-cultures (Human HaCaT keratinocytes, human primary melanocytes); assay: Induced pigmentation in keratinocyte-melanocyte co-cultures, DOPA staining and computerized image analysis; type: cell-based; conditions: three daily treatments; for Mean area: DOPA stain, relative pigmented area; for % increase: versus control
Protocol: The peptide Peptide 1 and various pigments were tested, alone or in combination, with keratinocyte-melanocyte cultures for their effect on cell pigmentation, using DOPA staining and computerized image analysis. The pigments that were tested were copper chloride from Sigma (St. Louis, Mo.) and the water-soluble melanin derivative Melasyn-100™ from San-mar laboratories, Inc. (Elmsford, N.Y.). The pigments were tested at concentrations ranging from 0.0001% (W/V) to 0.1% (W/V) and peptides were tested at 50 μM.
The assay was conducted in the following manner. Human HaCaT keratinocytes (Boukamp P., et al., J Cell Biol 106, 3, 761-771 (1988)) were maintained in Dulbecco's Modified Eagle's Medium (DMEM) containing 10% fetal bovine serum (FBS), 4.5 mg/ml glucose, 2 mM L-glutamine, 50 U/ml penicillin and 50 μg/ml streptomycin (Life Technologies, Gaithersburg, Md.). Cells were maintained at <80% confluency in 5% CO2 (v/v) and were used in experimental procedures up to culture passage 15. Human primary melanocytes (Clonetics, San Diego, Calif. or Cascade Biologics, Portland, Oreg.) were maintained according to manufacturer's instructions. To establish keratinocyte-melanocyte co-cultures, 6×10^4 melanocytes were plated in each well of a 24 well plate and maintained according to manufacturer's instructions.
Melanocytes were rinsed three times with melanocyte growth media without PMA and keratinocytes (6×10^4) were plated to establish the co-cultures in this media. Co-cultures were treated for three days with test peptides and pigments, and assayed for cell viability and pigment level on the forth day. Cell viability was assayed using alamarBlue™ (Acumed International, West Lake, Ohio) following manufacturer's instructions. No change in viability was observed following three daily treatments with all tested material. All in vitro experiments were performed in triplicates, and were repeated at least three times.
Following three daily treatments, the co-cultures were briefly fixed (10% buffered formalin from Fisher Scientific, 15 minutes), washed three times with Phosphate-buffered saline (PBS, from Life Technologies) and stained with L-3,4-Dihydroxyphenylalanine (DOPA, from Sigma, St. Louis, Mo.) 0.1% in PBS, for 5 hours at 37° C., followed by two PBS washes and formalin (10%, overnight) fixation. DOPA is a substrate for tyrosinase, therefore an increase in staining represents increased tyrosinase activity and pigment production. DOPA-stained monolayers were used for image analysis. All images were obtained and analyzed with Image Pro Plus 3.0 software (Media Cybernetics, Silver Spring, Md.). Parameters measured were surface area of stained material within melanocyte and keratinocytes and the total surface area of the cells in the culture, and the relative pigmented area was calculated. A value of 100% was assigned to untreated controls, and values of treatment groups were normalized to their relevant controls. In all experiments there was no difference between PBS-treated cells and untreated controls. Data are presented with standard deviation (SigmaPlot® 5.0, SPSS Science, Chicago, Ill.).
Forskolin (Sigma, St. Louis, Mo.), a known inducer of pigmentation, served as a positive control and a reference point. Forskolin was administered at 1% (W/V).

[2] = test system: Dark skinned Yucatan microswine; assay: Induced pigmentation in vivo, F&M-stained skin sections of topically treated swine; design: key: −1: Slight lightening; 0: No change; 1: Minimal increase in pigment deposition; 2: Increased pigment deposition; 3: Strong increase in pigment deposition, some increase in caps; 4: Strong increase in pigment deposition, strong increase in caps; conditions: topical, twice a day, five days/week, eight or nine weeks; average of all sites of responsive swine; positive controls 1% (W/V), peptides 250 or 500 μM, pigments 1% or 5% (W/V)
Protocol: Compositions of the present invention were tested for their ability to induce in vivo pigmentation in skin cells in the following experiment. Dark skinned Yucatan microswine (Charles River, Portland, Me.) were housed in appropriately sized cages in an environmentally controlled room with a 12-hour light-12-hour dark photoperiod and supplied with food and water ad libitum. Animal care was based on the “Guide for the Care and Use of Laboratory Animals”, NIH Publication No. 85-23. Twenty μl of test peptides were applied topically, twice a day, five days/week, for eight or nine weeks, on the dorsum of the swine. Treatments of individual swine were always arranged in a head to tail order on one side, and in a tail to head order on the other side of the animal. Biopsies were taken using standard techniques.
Sections from the skin biopsies were stained with Hematoxylin and Eosin (H&E), or with Fontana-Mason (F&M), using standard procedures (Sheenan DC, Hrapckak BB, eds., Theory and Practice of Histo-technology. p. 223, 277, The C. V. Mosby Co., St. Louis (1980)). F&M staining identifies silver nitrate reducing molecules. In skin, this non-specific stain identifies primarily melanin. At least three sections per biopsy were processed. […]
F&M-stained histological skin sections were evaluated for the change in pigment deposition within the treated site. […]

Molecule	Mean area ([1]; 0.001% (W/V))	% increase ([1]; 0.001% (W/V))	Mean area ([1]; 0.1% (W/V))	% increase ([1]; 0.1% (W/V))	Score (change in pigment deposition) [2]	Mean area ([1]; 50 μM)	% increase ([1]; 50 μM)
[Cl][Cu][Cl] [CuCl2, copper chloride]	0.173	120%	0.246	212%	–	–	–
C=C[C@@]1(C)CC(=O)[C@]2(O)[C@@]3(C)[C@@H](O)CCC(C)(C)[C@@H]3[C@H](O)[C@H](OC(C)=O)[C@@]2(C)O1 [Forskolin]	–	–	–	–	1	–	–
H2-Val-Gly-Val-Ala-Pro-Gly-NH2 (H-VGVAPG-NH2) [Peptide 1]	–	–	–	–	1	0.131	66.6%

— US20020197219A1, “Composition containing a peptide and a pigment and the use thereof in darkening the skin” (priority 2001, published 2002)
